Tests used:
[1] = biological target: T1, ERα protein level in T47D cells (Homo sapiens, UniProt P03372); test: Immunoblotting; format: cell-based; conditions: E2-non depleted T47D cells, 24, 48 and 72 h
T1 construct: from whole-cell extracts of T47D cells; endogenous in cells; host or cells: T47D
Protocol: (§1) Then, they were washed with ice-cold PBS supplemented with 1 mM ortovanadate and lysed with RIPA buffer containing protease and phosphatase inhibitors (Thermo Fisher Scientific, Waltham, MA, USA). Equal protein amounts were analyzed by SDS–PAGE, and transferred to nitrocellulose membranes (Thermo Fisher Scientific, Waltham, MA, USA), blocked with Tris-buffered saline/0.05% Tween 20 (TBS-T) containing 5% blotto (Merck, Darmstadt, Germany) or 5% BSA for total and phosphorylated proteins, respectively. Immunoblotting was carried out with mouse anti-ERα F-10 (Santa Cruz Biotech, Santa Cruz, CA, USA), rabbit total anti-STAT5 (Cell Signaling Technology, Leiden, The Netherlands) or mouse anti-polyubiquitin (EMD Millipore, Burlington, MA, USA). After washing, membranes were incubated with horseradish peroxidase-conjugated secondary antibodies (Bio-Rad) for 1 h at room temperature. The β-actin antibody (Santa Cruz Biotech, CA, USA) was used as the loading control. Finally, protein bands were visualized by using Clarity™ Western ECL Substrate (Bio-Rad) in the ChemiDoc XRS system (Bio-Rad) and were analyzed with Quantity One software (Bio-Rad).

[2] = system: alkaline phosphatase (ALP) activity in Ishikawa cells; test: Alkaline phosphatase assay; format: cell-based, human; conditions: for effect on E2-induced ALP activity: E2 10 nM, 48 h and 72 h
Protocol: Human endometrium cells ([…]) were cultured in MEM without phenol red with Earle's Salts culture, which was supplemented with estrogen-deprived 10 DCC-FBS du-ring 5 days. […] Cells were washed with ice-cold PBS, and Alkaline Phosphatase (ALP) activity was measured by using ALP Assay Kit (Abcam, Cambridge, MA, USA). The substrate p-nitrophenyl phosphate (pNPP) and the ALP enzyme were used to detect ALP activity by the analysis of the optical density at 405 nm in the iMark microplate Reader (Bio-Rad, Irvine, CA, USA). […] Protein concentration was quantified with the bicinchoninic acid assay (BCA) kit (Bio-Rad).

T47D cells = test: Real-time monitoring of 2D cell growth (IncuCyte); format: cell-based; conditions: Homo sapiens, 120 h, complete estrogenic media (10%FBS), 5 days, AUC
VERO cells = test: MTT cell viability assay; format: cell-based, monkey; conditions: Primates, Vero, 72 h, 10%FBS growth media
Protocol: (§2) Straightforward, the tetrazolium salt 3-(4,5-methyltiazol-2yl-)-2,5diphenyl-tetrazolium bromide (MTT) (Applichen, Darmstadt, Germany) was added to cells, incubated for 2–4 h at 37 °C, and lysed in 10% SDS.

Ishikawa cells = test: Real-time monitoring of cell proliferation and cytotoxicity (YOYO-1); conditions: for effect on growth of E2-depleted Ishikawa cells: 4-OHTAM 3 μM, compounds 5 µM, 7 days; for IC50: Homo sapiens, Ishikawa, 120 h, read-out: IC50, cell proliferation (AUC)
Protocol: (§3) To monitor long-term growth, human ER+ BC (T47-D, MCF-7, MCF-7/BUS), ER+ endometrial (Ishiwaka, High Point, NC, USA), or non-malignant breast (MCF-10A) cells were seeded at 3000–6000 cells per well. […] When indicated, cells were estrogen-deprived in a 10DCC-FBS supplemented medium for one week. […] Cytotoxicity was monitored by using YOYO-1 (Invitrogen, Waltham, MA, USA). Cell proliferation and cytotoxicity were monitored by sequential real-time microphotographs in an IncuCyte HD real-time imaging system (Essen BioScience, Hertfordshire, UK) for 5–10 days. The area under the curve (AUC) was then analyzed to know both the kinetics and dose-effect relationships. […] Next, cells were treated with VEH (0.05% DMSO) or test compounds for 5–10 days. Spheroid size and cell cytotoxicity were recorded with the Incucyte SX5 Live-Cell Analysis Instrument (Sartorius AG, Göttingen, Germany). To calculate the spheroid growth area, confluence measurements were taken considering the largest brightfield object area (µm^2). Cytotoxicity was monitored by using YOYO-1 (Essen Bioscience, Hertfordshire, UK).

[3] = as above; conditions: human, Ishikawa cells (ER+ endometrial cancer cells)
Protocol: as §3

[4] = system: ERα, pS2 and PR mRNA in MCF-7 cells; test: Quantitative real-time PCR of ERα-regulated genes; format: cell-based, human; conditions: 3 h pretreatment, E2 10 nM 24 h; 32 5 µM, 35 10 µM, ICI 0.1 µM, 4-OHTAM 1 µM
Protocol: (§4) For gene expression analysis, MCF-7 and Ishikawa cells were deprived of steroid hormones by using a 10DCC-FBS medium for five days. Then, 1,500,000 cells/dish were seeded in 5DCC-FBS, followed by treatment with test compounds. Total RNA was isolated by using TRItidy G™ (Panreac Applichem ITW Reagents, Darmstadt, Germany). The concentration and purity of RNA were determined with a NanoDrop 1000 spectrophotometer (Wilmington, NC, USA). Then, 1 µg of total RNA was reversed and amplified with the iScriptTM kit (Bio-Rad) following the manufacturer’s protocol. SYBR Green PCR Master mix (Applied Biosystems, Bedford, MA, USA) reagent and exon-specific primers for ERα were used for Real-time quantitative PCR (qPCR). Gene expression was analyzed with an Mx3005P qPCR System (Agilent, Santa Clara, CA, USA), and cycle threshold values were calculated using MxPro qPCR Software (Agilent, CA, USA). Target gene expression was normalized to the expression of the 18S housekeeping gene. Data were expressed as relative expression values according to the comparative CT method for qPCR [42].

[5] = system: ERα, pS2 and PR mRNA in Ishikawa cells; test: Quantitative real-time PCR of ERα-regulated genes; format: cell-based, human; conditions: for effect on E2-induced mRNA expression: 3 h pretreatment, E2 10 nM 24 h; for induction of basal mRNA level of PR gene: absence of E2
Protocol: as §4

SK-BR-3 cells = test: MTT cell viability assay; format: cell-based, human; conditions: Homo sapiens, SK-BR-3, 72 h, 10%FBS growth media
Protocol: as §2

BT-549 cells = test: MTT cell viability assay; format: cell-based, human; conditions: Homo sapiens, BT-549, 72 h, 10%FBS growth media
Protocol: as §2

MCF-10A cells = test: MTT cell viability assay; format: cell-based, human; conditions: Homo sapiens, MCF-10A, 72 h, 10%FBS growth media
Protocol: as §2

MCF-7 cells [6] = test: MTT cell viability assay; format: cell-based, human; conditions: Homo sapiens, MCF7, 72 h, 10%FBS growth media
Protocol: as §2

[7] = system: total STAT5 protein level in T47D cells; test: Immunoblotting; format: cell-based, human; conditions: 24–72 h
Protocol: as §1

MCF-7 cells [8] = test: Drug combination assay with 4-OHTAM (MTT, Chou-Talalay); conditions: for IC50: Homo sapiens, MCF7, 72 h, read-out: IC50, cell viability inhibition, single agent
Protocol: Cells were seeded at 5000 and 7500 cells, per well, respectively, and cell viability was assessed by MTT assays 72 h after treatment. Briefly, cells were incubated with constant ratio combinations of indicated test compounds by doubling dilutions of the individual drugs over a wide range of concentrations [43]. […] Dose-effect curves of the individual or combined compounds were plotted and assessed by the median effect method of Chou and Talalay [43] using Calcusyn software 2.0 (Biosoft, Cambridge, UK), thus obtaining the combination index (CI) values. CI values less than 1, equal to 1, and greater than 1 indicated synergism, addition, and antagonism, respectively.

[9] = combination with 4-OHTAM, constant ratio, 72 h, CI <1 synergism

SMILES	effect on ERα protein level [1]	effect on E2-induced ALP activity [2]	IC50 (T47D cells) [µM]	IC50 (VERO cells) [µM]	effect on growth of E2-depleted Ishikawa cells (Ishikawa cells)	IC50 (Ishikawa cells) [µM]	EC50 at 5 days [3] [µM]	effect on E2-induced mRNA expression [4]	effect on E2-induced mRNA expression [5]	induction of basal mRNA level of PR gene [5] [fold]	IC50 (SK-BR-3 cells) [µM]	IC50 (BT-549 cells) [µM]	IC50 (MCF-10A cells) [µM]	IC50 (MCF-7 cells [6]) [µM]	effect on total STAT5 protein level [7]	IC50 (MCF-7 cells [8]) [µM]	CI for ED75 (MCF-7 cells [8]; [9])	CI for ED90 (MCF-7 cells [8]; [9])	other results
Cc1ccc(C2=CC(O)(c3ccccc3)N(Cc3ccccc3)C2=O)cc1C (stereo not drawn) [compound 32, 1-benzyl-3-(3,4-dimethylphenyl)-5-hydroxy-5-phenyl-1H-pyrrol-2(5H)-one]	needed a longer time of cell exposure	inhibited E2-induced ALP activity	5.34 ± 2.47	14.7 ± 1.31	this effect was not observed	2.1	> 10	inhibited E2-induced ERα, pS2 and PR mRNA expression	significative reduction of PR-activated gene expression	2.5	1.51 ± 0.09	4.89 ± 0.96	0.08	2.54 ± 0.49	this effect was not provoked	0.69	0.6725 ± 0.06	0.6395 ± 0.09	Emax ([2]; Homo sapiens, Ishikawa, read-out: ALP activity, % of E2-induced maximal activity (Emax)): 18%; CI for ED25 (MCF-7 cells [8]; [9]): 0.762 ± 0.02
O=C1C(c2ccc([N+](=O)[O-])cc2)=CC(O)(c2ccccc2)N1Cc1ccccc1 (stereo not drawn) [compound 35, 1-benzyl-5-hydroxy-3-(4-nitrophenyl)-5-phenyl-1H-pyrrol-2(5H)-one]	dose-dependent (Figure 14B) decrease of ERα protein content	inhibited E2-induced ALP activity	6.98 ± 1.15	9.61 ± 0.16	this effect was not observed	3.81	10	inhibited E2-induced ERα, pS2 and PR mRNA expression	notably downregulated E2-induced ERα and PR mRNA levels	5	2 ± 0.18	4.19	3.16 ± 0.09	2.59 ± 0.34	this effect was not provoked	2.27	0.26 ± 0.07	0.32 ± 0.13	ALP activity, % of E2-induced maximal activity (Emax) ([2]; absence of E2): did not affect basal

Source: article PMC9655618 (Cancers, 2022)
